{"source": "patent US7342014B2", "about": "“Diamine derivatives” (Daiichi Pharmaceutical Co., Ltd., priority 2001, dated 2008)", "note": "Structures can show the parent of a compound that is named as a salt.", "data": [{"molecule": "COCC(=O)N1CC[C@H](NC(=O)c2cc3cc(F)ccc3[nH]2)[C@H](NC(=O)c2nc3c(s2)CN(C(C)C)CC3)C1", "note": "(relative stereo) (as salt: hydrochloride)", "values": [{"measurement": "melting point", "value": "214 to 228 °C (dec.)"}]}, {"molecule": "CN1CCc2nc(C(=O)N[C@@H]3CCS(=O)(=O)C[C@@H]3NC(=O)c3cc4cc(F)ccc4[nH]3)sc2C1", "note": "(relative stereo) (as salt: hydrochloride) [Example 183, N-((3R*,4R*)-3-{[(5-Fluoroindol-2-yl)carbonyl]amino}-1,1-dioxohexahydro-1-thiopyran-4-yl)-5-methyl-4,5,6,7-tetrahydrothiazolo[5,4-c]pyridine-2-carboxamide hydrochloride]", "values": [{"measurement": "melting point", "value": "244 to 249", "unit": "°C"}]}, {"molecule": "CC(=O)OC(C)(C)C(=O)N1CC[C@H](NC(=O)c2cc3cc(Cl)ccc3[nH]2)[C@H](NC(=O)c2nc3c(s2)CN(C)CC3)C1", "note": "(relative stereo) [Example 148, 2-((3R*,4S*)-4-{[(5-Chloroindol-2-yl)carbonyl]amino}-3-{[(5-methyl-4,5,6,7-tetrahydrothiazolo[5,4-c]pyridin-2-yl)carbonyl]amino}piperidin-1-yl)-1,1-dimethyl-2-oxoethyl acetate]", "values": [{"measurement": "melting point", "value": "190 °C (dec.)"}]}, {"molecule": "CN1CCc2nc(C(=O)N[C@@H]3CNCC[C@@H]3NC(=O)c3cc4cc(F)ccc4[nH]3)sc2C1", "note": "(relative stereo) (as salt: hydrochloride) [Example 122, N-((3R*,4S*)-4-{[(5-Fluoroindol-2-yl)carbonyl]amino}-piperidin-3-yl)-5-methyl-4,5,6,7-tetrahydrothiazolo[5,4-c]pyridine-2-carboxamide dihydrochloride]", "values": [{"measurement": "melting point", "value": "236 to 245 °C (dec.)"}]}, {"molecule": "CN1CCc2nc(C(=O)N[C@@H]3CN(C(=O)C(F)(F)F)CC[C@@H]3NC(=O)c3cc4cc(Cl)ccc4[nH]3)sc2C1", "note": "(relative stereo) (as salt: hydrochloride) [Example 137, N-[(3R*,4S*)-4-{[(5-Chloroindol-2-yl)carbonyl]amino}-1-(2,2,2-trifluoroacetyl)piperidin-3-yl]-5-methyl-4,5,6,7-tetrahydrothiazolo[5,4-c]pyridine-2-carboxamide hydrochloride]", "values": [{"measurement": "melting point", "value": "262 to 267 °C (dec.)"}]}, {"molecule": "CN1CCc2nc(C(=O)N[C@@H]3CN(CCF)CC[C@@H]3NC(=O)c3cc4cc(Cl)ccc4[nH]3)sc2C1", "note": "(relative stereo) (as salt: hydrochloride) [Example 168, N-[(3R*,4S*)-4-{[(5-Chloroindol-2-yl)carbonyl]amino}-1-(2-fluoroethyl)piperidin-3-yl]-5-methyl-4,5,6,7-tetrahydro-thiazolo[5,4-c]pyridine-2-carboxamide dihydrochloride]", "values": [{"measurement": "melting point", "value": "228 to 233 °C (dec.)"}]}, {"molecule": "COC1CC(C(=O)N2CC[C@H](NC(=O)c3cc4cc(Cl)ccc4[nH]3)[C@H](NC(=O)c3nc4c(s3)CN(C)CC4)C2)C1", "note": "(relative stereo) (as salt: hydrochloride)", "values": [{"measurement": "melting point", "value": "191 °C (dec.)"}]}, {"molecule": "CN1CCc2nc(C(=O)N[C@@H]3CNC[C@H]3NC(=O)c3cc4cc(Cl)ccc4[nH]3)sc2C1", "note": "(as salt: hydrochloride)", "values": [{"measurement": "melting point", "value": "248 to 250 °C (dec.)"}]}, {"molecule": "CN1CCc2nc(C(=O)N[C@@H]3CCS(=O)(=O)C[C@@H]3NC(=O)c3cc4cc(Cl)ccc4[nH]3)sc2C1", "note": "(relative stereo) (as salt: hydrochloride) [Example 180, N-((3R*,4R*)-3-{[(5-Chloroindol-2-yl)carbonyl]amino}-1,1-dioxohexahydro-1-thiopyran-4-yl)-5-methyl-4,5,6,7-tetrahydrothiazolo[5,4-c]pyridine-2-carboxamide hydrochloride]", "values": [{"measurement": "melting point", "value": "242 to 247", "unit": "°C"}]}, {"molecule": "CN1CCc2nc(C(=O)N[C@@H]3CN(S(C)(=O)=O)CC[C@@H]3NC(=O)c3cc4cc(F)ccc4[nH]3)sc2C1", "note": "(relative stereo) (as salt: hydrochloride) [Example 128]", "values": [{"measurement": "melting point", "value": "216 to 250 °C (dec.)"}]}, {"molecule": "CCOC(=O)N1CC[C@@H](NC(=O)c2nc3c(s2)CN(C)CC3)[C@@H](NC(=O)c2cc3cc(Cl)ccc3[nH]2)C1", "note": "(relative stereo) (as salt: hydrochloride)", "values": [{"measurement": "melting point", "value": "213 to 225 °C (dec.)"}]}, {"molecule": "CC(=O)N1CC[C@@H](NC(=O)c2nc3c(s2)CN(C)CC3)[C@@H](NC(=O)c2cc3cc(Cl)ccc3[nH]2)C1", "note": "(relative stereo) (as salt: hydrochloride) [Example 124, N-((3R*,4S*)-1-Acetyl-3-{[(5-chloroindol-2-yl)carbonyl]-amino}piperidin-4-yl)-5-methyl-4,5,6,7-tetrahydro-thiazolo[5,4-c]pyridine-2-carboxamide hydrochloride]", "values": [{"measurement": "melting point", "value": "225 to 250 °C (dec.)"}]}, {"molecule": "CN1CCc2nc(C(=O)N[C@@H]3CCN(C(=O)OC(C)(C)C)C[C@@H]3NC(=O)c3cc4cc(Cl)ccc4[nH]3)sc2C1", "note": "(relative stereo) [Example 119, tert-Butyl (3R*,4S*)-3-{[(5-chloroindol-2-yl)carbonyl]-amino}-4-{[(5-methyl-4,5,6,7-tetrahydrothiazolo[5,4-c]-pyridin-2-yl)carbonyl]amino}piperidine-1-carboxylate]", "values": [{"measurement": "melting point", "value": "187 to 189 °C (dec.)"}]}, {"molecule": "CCNC(=O)N1CC[C@H](NC(=O)c2cc3cc(Cl)ccc3[nH]2)[C@H](NC(=O)c2nc3c(s2)CN(C)CC3)C1", "note": "(relative stereo) (as salt: hydrochloride)", "values": [{"measurement": "melting point", "value": "221 to 235 °C (dec.)"}]}, {"molecule": "CN1CCc2nc(C(=O)N[C@@H]3CN(C(=O)C4CC(O)C4)CC[C@@H]3NC(=O)c3cc4cc(Cl)ccc4[nH]3)sc2C1", "note": "(relative stereo) (as salt: hydrochloride)", "values": [{"measurement": "melting point", "value": "200 °C (dec.)"}]}, {"molecule": "CC(=O)N1C[C@@H](NC(=O)c2cc3cc(Cl)ccc3[nH]2)[C@H](NC(=O)c2nc3c(s2)CN(C(C)C)CC3)C1", "note": "(as salt: hydrochloride) [Example 114, N-((3R,4R)-1-Acetyl-4-{[(5-chloroindol-2-yl)carbonyl]-amino}pyrrolidin-3-yl)-5-isopropyl-4,5,6,7-tetrahydro-thiazolo[5,4-c]pyridine-2-carboxamide hydrochloride]", "values": [{"measurement": "melting point", "value": "254 to 258 °C (dec.)"}]}, {"molecule": "COCC(=O)N1CC[C@H](NC(=O)c2cc3cc(Cl)ccc3[nH]2)[C@H](NC(=O)c2nc3c(s2)CN(C)CC3)C1", "note": "(relative stereo) (as salt: hydrochloride) [Example 143, N-[(3R*,4S*)-4-{[(5-Chloroindol-2-yl)carbonyl]amino}-1-(2-methoxyacetyl)piperidin-3-yl]-5-methyl-4,5,6,7-tetrahydro-thiazolo[5,4-c]pyridine-2-carboxamide hydrochloride]", "values": [{"measurement": "melting point", "value": "214 to 228 °C (dec.)"}]}, {"molecule": "CC(C)C(=O)N1CC[C@H](NC(=O)c2cc3cc(Cl)ccc3[nH]2)[C@H](NC(=O)c2nc3c(s2)CN(C)CC3)C1", "note": "(relative stereo) (as salt: hydrochloride)", "values": [{"measurement": "melting point", "value": "266 to 272 °C (dec.)"}]}, {"molecule": "CN1CCc2nc(C(=O)N[C@@H]3CN(C(=O)c4ccccc4)CC[C@@H]3NC(=O)c3cc4cc(Cl)ccc4[nH]3)sc2C1", "note": "(relative stereo) (as salt: hydrochloride) [Example 154, N-((3R*,4S*)-1-benzoyl-4-{[(5-Chloroindol-2-yl)carbonyl]amino}piperidin-3-yl]-5-methyl-4,5,6,7-tetrahydrothiazolo[5,4-c]pyridine-2-carboxamide hydrochloride]", "values": [{"measurement": "melting point", "value": "215 to 225 °C (dec.)"}]}, {"molecule": "CN1CCc2nc(C(=O)N[C@@H]3CN(C(=O)C(C)(C)C)CC[C@@H]3NC(=O)c3cc4cc(Cl)ccc4[nH]3)sc2C1", "note": "(relative stereo) (as salt: hydrochloride)", "values": [{"measurement": "melting point", "value": "250 to 255 °C (dec.)"}]}, {"molecule": "COC(=O)N1CC[C@H](NC(=O)c2cc3cc(Cl)ccc3[nH]2)[C@H](NC(=O)c2nc3c(s2)CN(C)CC3)C1", "note": "(relative stereo) (as salt: hydrochloride) [Example 129, Methyl (3R*,4S*)-4-{[(5-chloroindol-2-yl)carbonyl]amino}-3-{[(5-methyl-4,5,6,7-tetrahydrothiazolo[5,4-c]pyridin-2-yl)carbonyl]amino}piperidine-1-carboxylate hydrochloride]", "values": [{"measurement": "melting point", "value": "248 to 253 °C (dec.)"}]}, {"molecule": "CC(=O)N1CC[C@H](NC(=O)c2cc3cc(F)ccc3[nH]2)[C@H](NC(=O)c2nc3c(s2)CN(C)CC3)C1", "note": "(relative stereo) (as salt: hydrochloride)", "values": [{"measurement": "melting point", "value": "202 °C (dec.)"}]}, {"molecule": "COCC(C)(C)C(=O)N1CC[C@H](NC(=O)c2cc3cc(Cl)ccc3[nH]2)[C@H](NC(=O)c2nc3c(s2)CN(C)CC3)C1", "note": "(relative stereo) [Example 147, N-[(3R*,4S*)-4-{[(5-chloroindol-2-yl)carbonyl]amino}-1-(3-methoxy-2,2-dimethylpropanoyl)piperidin-3-yl)-5-methyl-4,5,6,7-tetrahydrothiazolo[5,4-c]pyridine-2-carboxamide]", "values": [{"measurement": "melting point", "value": "240 °C (dec.)"}]}, {"molecule": "CN1CCc2nc(C(=O)N[C@@H]3CS(=O)(=O)CC[C@@H]3NC(=O)c3cc4cc(Cl)ccc4[nH]3)sc2C1", "note": "(relative stereo) (as salt: hydrochloride) [Example 178, N-((3R*,4R*)-4-{[(5-Chloroindol-2-yl)carbonyl]amino}-1,1-dioxohexahydro-1-thiopyran-3-yl)-5-methyl-4,5,6,7-tetrahydrothiazolo[5,4-c]pyridine-2-carboxamide hydrochloride]", "values": [{"measurement": "melting point", "value": "241 to 244", "unit": "°C"}]}, {"molecule": "COCC(=O)N1CC[C@@H](NC(=O)c2cc3cc(Cl)ccc3[nH]2)[C@H](NC(=O)c2nc3c(s2)CN(C)CC3)C1", "note": "(as salt: hydrochloride) [Example 172, N-[(3R,4R)-4-{[(5-Chloroindol-2-yl)carbonyl]amino}-1-(2-methoxyacetyl)piperidin-3-yl]-5-methyl-4,5,6,7-tetrahydro-thiazolo[5,4-c]pyridine-2-carboxamide hydrochloride]", "values": [{"measurement": "melting point", "value": "213 to 230", "unit": "°C"}]}, {"molecule": "COCC(COC)C(=O)N1CC[C@H](NC(=O)c2cc3cc(Cl)ccc3[nH]2)[C@H](NC(=O)c2nc3c(s2)CN(C)CC3)C1", "note": "(relative stereo) (as salt: hydrochloride) [Example 152, N-{(3R*,4S*)-4-{[(5-Chloroindol-2-yl)carbonyl]amino}-1-[3-methoxy-2-(methoxymethyl)propanoyl]piperidin-3-yl]-5-methyl-4,5,6,7-tetrahydrothiazolo[5,4-c]pyridine-2-carboxamide hydrochloride]", "values": [{"measurement": "melting point", "value": "178 to 184 °C (dec.)"}]}]}
